# Data published in ChEMBL document CHEMBL1201862, “PubChem BioAssay data set” (2004).
#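 How tested: cells in 96-well plates exposed to compound for 48 hours at five concentrations. GI50 marks 50% less growth.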 Calls of active or inactive are those of the source. Cut-off read from the data, not from the text of the source: active = GI50 up to about 1.1 µM and inactive = higher.
# Key:
# Assay in all cases: NCI anticancer screen, dose series, 48 h
# HCT-15 = test system: HCT-15
# HCC 2998 = test system: HCC 2998
# IGROV-1 = test system: IGROV-1
# UACC-62 = test system: UACC-62
# SK-OV-3 = test system: SK-OV-3
# MCF7 = test system: MCF7
# NCI-H23 = test system: NCI-H23
# BT-549 = test system: BT-549
# Malme-3M = test system: Malme-3M
# Hs-578T = test system: Hs-578T
# OVCAR-3 = test system: OVCAR-3
# SNB-19 = test system: SNB-19
# SN12C = test system: SN12C
# NCI-H460 = test system: NCI-H460
# NCI/ADR-RES = test system: NCI/ADR-RES
# HCT-116 = test system: HCT-116
# HT-29 = test system: HT-29
# OVCAR-5 = test system: OVCAR-5
# SR = test system: SR
# HL-60 = test system: HL-60
SMILES,GI50 (HCT-15) [µM],GI50 (HCC 2998),GI50 (IGROV-1),GI50 (UACC-62),GI50 (SK-OV-3),GI50 (MCF7),GI50 (NCI-H23),GI50 (BT-549),GI50 (Malme-3M),GI50 (Hs-578T),GI50 (OVCAR-3),GI50 (SNB-19),GI50 (SN12C),GI50 (NCI-H460),GI50 (NCI/ADR-RES),GI50 (HCT-116),GI50 (HT-29),GI50 (OVCAR-5),GI50 (SR),GI50 (HL-60)
Cn1c(N=P(c2ccccc2)(c2ccccc2)c2ccccc2)c([N+](=O)[O-])c(=O)n(C)c1=O,51.9,71.8 µM (inactive),48 µM (inactive),59.2 µM (inactive),> 100 µM (inactive),42.3 µM (inactive),99.1 µM (inactive),38.5 µM (inactive),> 100 µM (inactive),25.2 µM (inactive),30.5 µM (inactive),> 100 µM (inactive),56.2 µM (inactive),43.4 µM (inactive),89.9 µM (inactive),36.6 µM (inactive),44.5 µM (inactive),> 100 µM (inactive),–,–
CCON1CC(C(=O)OC)=C(O)C1=O,> 100,> 100 µM (inactive),> 100 µM (inactive),> 100 µM (inactive),> 100 µM (inactive),> 100 µM (inactive),> 100 µM (inactive),> 100 µM (inactive),> 100 µM (inactive),> 100 µM (inactive),> 100 µM (inactive),> 100 µM (inactive),–,> 100 µM (inactive),> 100 µM (inactive),> 100 µM (inactive),> 100 µM (inactive),> 100 µM (inactive),–,–
S=C(N1CCN(c2cccc(Cl)c2)CC1)N1CCN(c2cccc(Cl)c2)CC1,57.3,17.5 µM (inactive),42.6 µM (inactive),83 µM (inactive),> 100 µM (inactive),37.1 µM (inactive),> 100 µM (inactive),75.3 µM (inactive),21.2 µM (inactive),18.6 µM (inactive),47 µM (inactive),39.7 µM (inactive),–,–,> 100 µM (inactive),21.2 µM (inactive),28.8 µM (inactive),44.1 µM (inactive),13.4 µM (inactive),–
CCCCN1C(=O)N(c2ccc(OCC)cc2)C2N(CCCC)C1C(C)(C)C2(C)C (stereo not drawn),26.6,51.3 µM (inactive),33.6 µM (inactive),16.9 µM (inactive),19.2 µM (inactive),15.3 µM (inactive),24.8 µM (inactive),30.3 µM (inactive),24.2 µM (inactive),18.6 µM (inactive),15.7 µM (inactive),35.6 µM (inactive),30.3 µM (inactive),42.2 µM (inactive),23.5 µM (inactive),31.6 µM (inactive),38.5 µM (inactive),–,–,–
CC(=O)c1c(-c2ccccc2)c(-c2ccc(OCCN(C)C)cc2)n2ccccc12,10.7,14.6 µM (inactive),16.6 µM (inactive),15.7 µM (inactive),19.2 µM (inactive),18 µM (inactive),18.7 µM (inactive),14.9 µM (inactive),11.9 µM (inactive),16.3 µM (inactive),16.6 µM (inactive),19.3 µM (inactive),16 µM (inactive),13.2 µM (inactive),14.5 µM (inactive),13.3 µM (inactive),3.44 µM (inactive),47.8 µM (inactive),–,16.3 µM (inactive)
CC(=O)c1cccc(Nc2nc3ccc(Cl)cc3c3[nH]c4ccccc4c23)c1,6.08,–,4.16 µM (inactive),2.19 µM (inactive),4.15 µM (inactive),0.434 µM (active),12.8 µM (inactive),64.1 µM (inactive),4.95 µM (inactive),9.35 µM (inactive),0.045 µM (active),10.5 µM (inactive),13.1 µM (inactive),1.71 µM (inactive),4.38 µM (inactive),3.85 µM (inactive),6.21 µM (inactive),5.79 µM (inactive),–,–
CCOC(=O)c1c(N)nn2c1cc1cccccc12,32.3,30 µM (inactive),27.9 µM (inactive),23.6 µM (inactive),26.8 µM (inactive),16 µM (inactive),29.3 µM (inactive),25.3 µM (inactive),27.8 µM (inactive),29.9 µM (inactive),28.2 µM (inactive),40.7 µM (inactive),32.9 µM (inactive),20.1 µM (inactive),25.9 µM (inactive),33.5 µM (inactive),36.2 µM (inactive),59.8 µM (inactive),–,32.5 µM (inactive)
CC(=O)OCC1OC(N2C(c3ccccc3)=CC(c3ccccc3)C(C#N)=C2S)C(OC(C)=O)C(OC(C)=O)C1OC(C)=O (stereo not drawn),48.5,25.4 µM (inactive),18.2 µM (inactive),0.583 µM (active),–,19.4 µM (inactive),7.41 µM (inactive),5.57 µM (inactive),5.43 µM (inactive),3.27 µM (inactive),16.9 µM (inactive),5.96 µM (inactive),3.56 µM (inactive),5.48 µM (inactive),14.3 µM (inactive),5.92 µM (inactive),2.35 µM (inactive),14.6 µM (inactive),42 µM (inactive),–
CC(=O)c1ccc2c3c1O[C@H]1c4[nH]c5ccccc5c4C[C@@]4(O)[C@@H](C2)N(CC2CC2)CC[C@]314,8.67,–,13.6 µM (inactive),16.5 µM (inactive),20.1 µM (inactive),16.7 µM (inactive),17.7 µM (inactive),14.5 µM (inactive),21.3 µM (inactive),0.933 µM (active),11.4 µM (inactive),0.573 µM (active),19.1 µM (inactive),0.497 µM (active),8.67 µM (inactive),15.5 µM (inactive),4.13 µM (inactive),13.2 µM (inactive),–,16.1 µM (inactive)
CN(C)CCNc1nc2ccccc2c2c1C(=O)c1ccccc1-2,0.15,0.134 µM (active),0.0942 µM (active),0.0849 µM (active),0.703 µM (active),0.0508 µM (active),0.316 µM (active),0.914 µM (active),0.251 µM (active),2.1 µM (inactive),0.556 µM (active),0.47 µM (active),0.0565 µM (active),< 0.0194 µM (active),0.267 µM (active),0.049 µM (active),0.191 µM (active),0.367 µM (active),–,< 0.0432 µM (active)
N=C(N)SCCSC(=N)N,> 100,> 100 µM (inactive),> 100 µM (inactive),> 100 µM (inactive),> 100 µM (inactive),> 100 µM (inactive),> 100 µM (inactive),> 100 µM (inactive),> 100 µM (inactive),> 100 µM (inactive),> 100 µM (inactive),> 100 µM (inactive),> 100 µM (inactive),> 100 µM (inactive),> 100 µM (inactive),> 100 µM (inactive),> 100 µM (inactive),> 100 µM (inactive),–,–
CC1=NN(c2nc(N)nc(CO)n2)C(C)(C)C1,> 100,> 100 µM (inactive),> 100 µM (inactive),> 100 µM (inactive),> 100 µM (inactive),> 100 µM (inactive),> 100 µM (inactive),> 100 µM (inactive),–,> 100 µM (inactive),> 100 µM (inactive),> 100 µM (inactive),> 100 µM (inactive),–,> 100 µM (inactive),> 100 µM (inactive),> 100 µM (inactive),> 100 µM (inactive),–,> 100 µM (inactive)
O=c1c(C(c2ccc(OCc3ccccc3)cc2)c2c(O)oc3ccccc3c2=O)c(O)oc2ccccc12,41.7,35.1 µM (inactive),77.4 µM (inactive),37.5 µM (inactive),50.5 µM (inactive),48.4 µM (inactive),35.7 µM (inactive),24.9 µM (inactive),28.6 µM (inactive),34.3 µM (inactive),63.8 µM (inactive),40.6 µM (inactive),30.4 µM (inactive),35 µM (inactive),34.2 µM (inactive),36.8 µM (inactive),33 µM (inactive),75.2 µM (inactive),–,32.8 µM (inactive)
CN(C(=O)Cc1cccc(N=C=S)c1)[C@H]1CCCC[C@@H]1N1CCCC1,14.5,–,13.9 µM (inactive),15.7 µM (inactive),25.5 µM (inactive),13 µM (inactive),14.2 µM (inactive),11 µM (inactive),22.4 µM (inactive),25.3 µM (inactive),14.1 µM (inactive),20.6 µM (inactive),15.2 µM (inactive),16.7 µM (inactive),24.8 µM (inactive),13 µM (inactive),11.5 µM (inactive),19.2 µM (inactive),6.73 µM (inactive),–
CN(CC(=O)O)CC(=O)O,> 100,> 100 µM (inactive),> 100 µM (inactive),> 100 µM (inactive),> 100 µM (inactive),> 100 µM (inactive),> 100 µM (inactive),> 100 µM (inactive),> 100 µM (inactive),> 100 µM (inactive),> 100 µM (inactive),> 100 µM (inactive),> 100 µM (inactive),> 100 µM (inactive),> 100 µM (inactive),> 100 µM (inactive),> 100 µM (inactive),> 100 µM (inactive),–,> 100 µM (inactive)
CC1=CC2C(O1)C1C(=O)C=CC(=O)C1=CC2[N+](=O)[O-] (stereo not drawn),19.1,> 43.7 µM (inactive),17.9 µM (inactive),18.6 µM (inactive),> 100 µM (inactive),6.75 µM (inactive),19.9 µM (inactive),15.8 µM (inactive),–,18.1 µM (inactive),16 µM (inactive),34.6 µM (inactive),18.1 µM (inactive),18.6 µM (inactive),25.5 µM (inactive),13.8 µM (inactive),16.5 µM (inactive),24.5 µM (inactive),–,8.11 µM (inactive)
